The numbers were not newly measured in patent US20060088612A1, “Composition for treatment of topical infection and methods of making and using same” (priority 2004, published 2006), which cites them from elsewhere.

The subject of the data set is HSV. Particulars: topical medication for HSV.

With `CCCCCCCCCCCCCCCCCCCCCCO` [docosanol], the effectiveness versus placebo entry is reported as “no more effective than a placebo”.
